Results published in patent US8178675B2, “Compounds for the treatment of metabolic disorders” (Wellstat Therapeutics Corporation, priority 2005, dated 2012).

How the values were obtained:
human PPARα = molecular target: T1, human PPARα (Homo sapiens, UniProt Q07869); assay: Human PPARα transactivation assay (Gal4/PPAR-LBD, luciferase reporter); assay type: cell-based
T1 construct: expressed in transfected cells
T1 sequence (Q07869 167-468): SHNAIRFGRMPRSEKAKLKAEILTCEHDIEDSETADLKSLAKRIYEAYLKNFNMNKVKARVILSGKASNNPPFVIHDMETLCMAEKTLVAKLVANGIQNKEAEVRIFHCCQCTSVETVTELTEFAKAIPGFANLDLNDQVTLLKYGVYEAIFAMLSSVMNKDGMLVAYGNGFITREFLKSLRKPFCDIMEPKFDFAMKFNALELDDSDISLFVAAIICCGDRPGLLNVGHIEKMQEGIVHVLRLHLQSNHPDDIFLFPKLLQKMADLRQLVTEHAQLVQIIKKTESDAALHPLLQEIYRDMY
Description: In order to examine the activity of Compound CW on PPARα, a transactivation assay was used. Transactivation assays take advantage of the modular domain structure of nuclear receptors. A fusion protein was made between the human or mouse PPAR ligand binding domain (PPAR-LBD) and the yeast Gal4 DNA binding domain (“activator plasmid”). The reporter gene construct consisted of the Gal4 DNA binding element in cis with a luciferase reporter. When an agonist binds the Gal4/PPAR-LBD, the fusion protein binds the Gal4 DNA binding element on the reporter gene resulting in transcription of the firefly luciferase gene. Luciferase oxidizes the substrate luciferin in an ATP-dependent reaction; the amount of light given off is a direct measure of the level of the enzyme and, consequently, of the activity of the ligand binding the PPAR-LBD.
The activator expressing plasmids contained a yeast GAL4 DNA-binding domain fused to the human PPARα ligand binding and hinge domains (a.a. 167-468). The reporter plasmid used was pFRLuc, which has the firefly luciferase gene under the control of a GAL4 UAS containing promoter (Stratagene (La Jolla, Calif.)).
One day prior to transfection, cells were seeded in 24-well plates at a density of 5×10^4-2×10^5 cells/well, depending upon the cell type. Cells were transfected using Lipofectamine 2000 reagent (Invitrogen (Calsbad, Calif.)). […]

db/db mice = assay: Antidiabetic effects in db/db mouse model of type II diabetes (serum chemistry after 2 weeks daily oral dosing); assay type: in vivo
Description: db/db mice have a defect in leptin signaling, leading to hyperphagia, obesity and diabetes. Moreover, unlike ob/ob mice on a C57BL/6J background, db/db mice on a C57BLKS background undergo failure of their insulin-producing pancreatic islet cells, resulting in progression from hyperinsulinemia (associated with peripheral insulin resistance) to hypoinsulinemic diabetes.
Male obese (db/db homozygote) C57BL/Ksola mice approximately 8 weeks of age, were obtained from Jackson Labs (Bar Harbor, Me.) and randomly assigned into groups of 5-7 animals such that the body weights (40-45 g) and serum glucose levels (≧300 mg/dl in fed state) were similar between groups; male lean (db/+ heterozygote) mice served as cohort controls. A minimum of 7 days was allowed for adaptation after arrival. All animals were maintained under controlled temperature (23° C.), relative humidity (50±5%) and light (7:00-19:00), and allowed free access to standard chow (Formulab Diet 5008, Quality Lab Products, Elkridge, Md.) and water.
Mice received daily oral doses of vehicle or Compound CW for 2 weeks. At the end of the treatment period 100 μl of venous blood was withdrawn in a heparinized capillary tube from the retro-orbital sinus for serum chemistry analysis. Mice were in the fed state at the time of blood sampling.

[1] = after 2 weeks of daily oral dosing

Maximal activity in transactivation assay (human PPARα; positive control, same experiment)	Activity on human PPARα (type of agonism) (human PPARα; Gal4/human PPARα-LBD luciferase transactivation, 24 hours treatment, FIG. 1)	Structure (SMILES)	Glucose (serum glucose) (db/db mice; 100 mg/kg daily oral, 2 weeks, fed state, vehicle control 735 ± 66) [mg/dL]	Effect on blood glucose (db/db mice; [1])	Effect on serum triglycerides (db/db mice; [1])	Triglycerides ± SEM (serum triglycerides) (db/db mice; daily oral dosing 2 weeks, fed state, vehicle 221 ± 62) [mg/dL]
~40,000 RLU	–	Cc1cccc(Nc2cc(Cl)nc(SCC(=O)O)n2)c1C [Wy-14,643, reference compound]	–	–	–	–
–	partial agonist	Cc1cccc(C)c1COc1cccc(C(C)C(=O)O)c1 (racemic) [Compound CW, 2-(3-(2,6-Dimethylbenzyloxy)-phenyl)-2-(R,S)-methylacetic acid]	171 ± 66	significant reduction	reduced	109 ± 13
